# Results reported in ChEMBL document CHEMBL1667752 (Eur J Med Chem, 2011).
# How the values were obtained:
# [1] = target: Cannabinoid receptor 2 (Homo sapiens, UniProt P34972); assay: Displacement of [3H]CP 55940 from human CB2 receptor in cell free system
# [2] = species: Homo sapiens; assay: Selectivity ratio of Ki for human CB1 to Ki for human CB2
# [3] = target: Cannabinoid receptor 1 (Homo sapiens, UniProt P21554); assay: Displacement of [3H]CP 55940 from human CB1 receptor in cell free system
# Sequence of Cannabinoid receptor 1 (P21554 whole entry): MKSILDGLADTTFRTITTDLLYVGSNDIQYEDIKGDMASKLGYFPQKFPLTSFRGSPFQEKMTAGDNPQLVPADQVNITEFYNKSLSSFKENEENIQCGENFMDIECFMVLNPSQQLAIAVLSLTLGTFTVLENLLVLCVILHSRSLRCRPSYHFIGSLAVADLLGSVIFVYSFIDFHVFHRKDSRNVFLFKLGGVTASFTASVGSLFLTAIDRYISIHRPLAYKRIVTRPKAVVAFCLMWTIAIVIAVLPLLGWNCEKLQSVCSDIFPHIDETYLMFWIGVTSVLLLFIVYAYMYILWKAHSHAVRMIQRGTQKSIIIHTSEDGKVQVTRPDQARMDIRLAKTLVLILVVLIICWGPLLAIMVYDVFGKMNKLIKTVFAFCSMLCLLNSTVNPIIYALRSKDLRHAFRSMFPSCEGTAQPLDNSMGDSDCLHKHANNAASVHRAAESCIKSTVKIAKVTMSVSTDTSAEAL
# Sequence of Cannabinoid receptor 2 (P34972 whole entry): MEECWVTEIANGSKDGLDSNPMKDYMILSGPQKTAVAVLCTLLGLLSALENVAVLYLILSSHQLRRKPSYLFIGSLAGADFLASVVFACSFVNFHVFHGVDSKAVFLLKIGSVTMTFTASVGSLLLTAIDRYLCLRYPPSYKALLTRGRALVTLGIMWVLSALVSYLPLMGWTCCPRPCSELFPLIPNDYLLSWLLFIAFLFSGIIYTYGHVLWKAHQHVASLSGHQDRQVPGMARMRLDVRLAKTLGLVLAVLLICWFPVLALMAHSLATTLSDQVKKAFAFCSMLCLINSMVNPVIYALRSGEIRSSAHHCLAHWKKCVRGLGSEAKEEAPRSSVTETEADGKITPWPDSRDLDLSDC
Compound,Ki ([1]; read-out: Ki) [nM],log(ratioKi) [2],Ki [3] [nM],Ki ([1]; read-out: pKi (converted)) [nM]
COCc1ccc2c(c1)c(C(=O)C1C(C)(C)C1(C)C)cn2CC1CCOCC1,25,–,–,–
CCCCCn1c(C)c(C(=O)c2cccc3ccccc23)c2ccccc21,–,0.28,–,–
Cc1nc(C(=O)NC23CC4CC(CC2C4)C3)c(C)n1-c1ccccc1,9.7,2.74,5440,–
CC1(Cc2ccccc2)COc2cc(C(=O)N3CCCCC3)ccc21 (stereo unspecified),–,1.37,> 10000,–
CCCCCn1cc(C(=O)NC2C(C)(C)[C@@H]3CC[C@@]2(C)C3)c(=O)c2cc(-c3ccco3)ccc21 (stereo partly specified),2.4,2.3,480,–
CCCCc1c(C(=O)NC23CC4CC(CC(C4)C2)C3)nc(C)n1-c1ccccc1,–,2.3,–,–
CCCCCn1cc(C(=O)NC23CC4CC(CC(C4)C2)C3)c(=O)c2cc(-c3c(C)noc3C)ccc21,–,–,–,102
Cc1ccc(NC(=O)C2CCCCC2(C)C)cc1S(=O)(=O)N1CCOCC1 (stereo unspecified),–,1.85,–,–
CCC1CCC(C(=O)c2cn(CCN3CCOCC3)c3ccccc23)CC1 (stereo unspecified),16,1.58,616,–
Cc1ccc2c(c1)Cc1c(C(=O)NN3CCCCC3)nn(-c3ccc(Cl)cc3Cl)c1-2,0.04,3.95,363,–
N#Cc1c(Oc2cccc(OS(=O)(=O)CCCC(F)(F)F)c2)cccc1C(F)(F)F,–,0.03,48.3,–
CCCCCn1cc(C(=O)NC23CC4CC(CC(C4)C2)C3)c(=O)c2cc(-c3ccccc3)ccc21,–,3.42,–,–
CCCCCn1cc(C(=O)NC23CC4CC(CC(C4)C2)C3)c(=O)c2cc(I)ccc21,–,2.01,–,–
CCCCCn1cc(C(=O)NC23CC4CC(CC(C4)C2)C3)c(=O)c2cc(-c3ccco3)ccc21,–,4.15,–,–
CC1(C)C(C(=O)c2cn(CC3CCOCC3)c3cc(O)ccc23)C1(C)C,8.3,2.55,2950,–
CCC(C)(C)C(=O)Cc1cc(C)c(C)c(S(=O)(=O)N2CCCCCC2)c1,9,2.3,1800,–
CCCCCn1cc(C(=O)NC2C3CC4CC(C3)CC2C4)c(=O)c2ccccc21 (stereo unspecified),–,2.16,–,–
CC1(C)C(C(=O)c2cn(CC3CCOCC3)c3ccc(N)cc23)C1(C)C,9,2.05,1000,–
COCCn1c(C)c(C)s/c1=N\C(=O)C1C(C)(C)C1(C)C,0.64,2.62,–,–
CCCCCCNC(=O)c1cn(CCCCC)c2ccc(Br)cc2c1=O,–,–,–,891
CCCC(C)(C)c1ccc2c(c1)OC(C)(C)[C@@H]1CC=C(C)C[C@@H]21,–,2.3,–,–

Compound,Ki ([1]; read-out: Ki) [nM],log(ratioKi) [2],Ki [3] [nM],Ki ([1]; read-out: pKi (converted)) [nM]
CC1(C)C(C(=O)c2cn(CC3CCOCC3)c3cc(-c4ccccc4)ccc23)C1(C)C,0.4,2.27,–,–
Cc1c(C(C)(C)C)s/c(=N\C(=O)c2ccc(Br)cc2)n1CC1CC1,1.2,1.6,53,–
CCc1nc(C(=O)NC23CC4CC(CC(C4)C2)C3)c(C)n1-c1ccccc1,–,3.41,–,–
CC1=CC[C@@H]2[C@@H](C1)c1c(O)cc(C(C)(C)c3cccs3)cc1OC2(C)C,0.91,1.13,12.3,–
COCCn1cc(C(=O)C2C(C)(C)C2(C)C)c2ccccc21,–,2.35,–,–
O=S(=O)(CCCC(F)(F)F)Oc1cccc(Oc2cccc3c2C[C@H](CO)C3)c1,–,–,–,4.27
C#CCn1cc(C(=O)NC23CC4CC(CC(C4)C2)C3)c(=O)c2cc(Br)ccc21,–,1.81,–,–
Cc1ccc2c(=O)c(C(=O)NC3CCCC3)cn(CCN3CCOCC3)c2n1,50,1.3,1000,–
CCCCCn1cc(C(=O)NC23CC4CC(CC(C4)C2)C3)c(=O)c2cc(C(F)(F)F)ccc21,–,2.34,–,–
Cc1nc(C(=O)Nc2ccccc2C(F)(F)F)c(C)n1-c1ccccc1,3.5,2.6,1420,–
Cc1c(C(=O)NC2CCCCC2)nn(-c2ccc(Cl)c(Cl)c2)c1-n1c(C)ccc1C,–,1.05,–,–
Cc1c(C(C)(C)C)s/c(=N\C(=O)c2ccc(OC(F)(F)F)cc2)n1CC1CC1,5.7,2.28,1100,–
COc1cccc2c(C(=O)C3C(C)(C)C3(C)C)cn(CC3CCOCC3)c12,0.1,–,–,–
CCCCCCC1(c2cc(O)c3c(c2)OC(C)(C)[C@@H]2CC=C(C)C[C@@H]32)CC1,0.9,0.07,1,–
O=C(c1cn(CC2CCOCC2)c2ccccc12)C1CCCC1,–,1.07,–,–
CN1CCCCC1Cn1cc(C(=O)c2cc([N+](=O)[O-])ccc2I)c2ccccc21 (stereo unspecified),–,2.64,–,–
CCCCCn1cc(C(=O)NC23CC4CC(CC(C4)C2)C3)c(=O)c2cc(C3=CCCCC3)ccc21,–,3.08,–,–
CC1=CC[C@@H]2[C@@H](C1)c1c(O)cc(C3(C4CCCCC4)SCCS3)cc1OC2(C)C,–,0.24,–,–
Cc1c(Cl)ccc2c(=O)c(C(=O)NC34CC5CC(CC(C5)C3)C4)c[nH]c12,25.5,2.59,> 10000,–
CCCCCn1cc(C(=O)NC23CC4CC(CC(C4)C2)C3)c(=O)c2ccccc21,–,0.95,–,–
CC1(C)C(C(=O)c2cn(CC3CCOCC3)c3c(COc4ccccc4)cccc23)C1(C)C,3,0.98,28,–

Compound,Ki ([1]; read-out: Ki) [nM],log(ratioKi) [2],Ki [3] [nM],Ki ([1]; read-out: pKi (converted)) [nM]
CCCCCn1cc(C(=O)NC23CC4CC(CC(C4)C2)C3)c(=O)c2cc(-c3ccc(O)cc3)ccc21,–,3.38,–,–
C=C1CC[C@@H]2[C@@H](C1)c1c(OC)cc(C(C)(C)CCCCCC)cc1OC2(C)C,11.8,2.26,4890,–
CCCCCn1cc(C(=O)NC23CC4CC(CC(C4)C2)C3)c(=O)c2cc(-c3cc(C)c(OC)c(C)c3)ccc21,–,1.38,–,–
CCCCCn1cc(C(=O)NC23CC4CC(CC(C4)C2)C3)c(=O)c2cc(-c3ccc(F)cc3F)ccc21,–,2.79,–,–
Cc1c(C(=O)NC2CCCCC2)nn(-c2ccc(Cl)c(Cl)c2)c1-n1cccc1,–,0.52,–,–
Cc1ccc(C(=O)NC(C(C)(C)C)C(C)(C)C)cc1S(=O)(=O)N1CCOCC1,–,0.95,–,–
CCCCCn1cc(C(=O)NC23CC4CC(CC(C4)C2)C3)c(=O)c2cc(-c3cccs3)ccc21,–,3.68,–,–
CCCCCCC1(c2cc(O)c3c(c2)OC(C)(C)[C@@H]2CC=C(C)C[C@@H]32)CC1(Cl)Cl (stereo partly specified),1.3,0.19,1.8,–
C=CCCn1cc(C(=O)NC23CC4CC(CC(C4)C2)C3)c(=O)c2cc(-c3ccco3)ccc21,–,3.35,–,–
CCCCCn1cc(C(=O)NC23CC4CC(CC(C4)C2)C3)c(=O)c2cc(-c3ccc(C#N)cc3)ccc21,–,2.38,–,–
COc1ccc2c(c1)c(CCN1CCOCC1)c(C)n2C(=O)c1cccc(Cl)c1Cl,–,2.21,–,–
CCCCCn1cc(C(=O)NC23CC4CC(CC(C4)C2)C3)c(=O)c2cc(-n3ccnc3)ccc21,–,3.1,–,–
CC1=CC[C@@H]2[C@@H](C1)c1c(O)cc(C(C)(C)C3CCCCCC3)cc1OC2(C)C,–,0.63,–,–
CCCCCn1cc(C(=O)NC23CC4CC(CC(C4)C2)C3)c(=O)c2cc(CCc3ccccc3)ccc21,–,2.27,–,–
Cc1ccc(NC(=O)C2C(C)(C)C2(C)C)cc1S(=O)(=O)N1CCOCC1,–,2.16,–,–
CC1(C)C(C(=O)c2cn(CCN3CCOCC3)c3cccc(N)c23)C1(C)C,–,2.05,3500,–
COc1ccc(OC)c2c(=O)c(C(=O)NC34CC5CC(CC(C5)C3)C4)c[nH]c12,52.6,1.6,2100,–
CCCCC/C=C\C/C=C\C/C=C\C/C=C\CCCC(=O)N[C@H]1C[C@@H]1O,–,–,–,191
COc1ccc2c(c1)c(C(=O)C1C(C)(C)C1(C)C)cn2CC1CCOCC1,–,2,–,–
Cc1nc(C(=O)NC23CC4CC(CC(C4)C2)C3)c(C)n1-c1ccccc1,–,3.2,–,–
COc1ccc(-c2oc3cc(OC)ccc3c2C(=O)c2ccc(C#N)cc2)cc1,–,–,–,14800

Compound,Ki ([1]; read-out: Ki) [nM],log(ratioKi) [2],Ki [3] [nM],Ki ([1]; read-out: pKi (converted)) [nM]
CCCCCOc1c(OC)ccc2cc(C(=O)NCc3ccc4c(c3)OCO4)c(=O)[nH]c12,–,–,2370,–
COCCn1c(C)c(C(C)(C)C)s/c1=N\C(=O)c1ccc(C(F)(F)F)cc1,10,2.6,4100,–
CCCCCn1cc(C(=O)NC23CC4CC(CC(C4)C2)C3)c(=O)c2cc(-c3ccc(Cl)s3)ccc21,–,2.35,–,–
CCCCCn1cc(C(=O)NC23CC4CC(CC(C4)C2)C3)c(=O)c2cc(CC)ccc21,–,1.74,–,–
CCCCCn1cc(C(=O)NC23CC4CC(CC(C4)C2)C3)c(=O)c2cccc(C)c21,4.9,> 3.3,> 10000,–
CCCCCn1c(C)c(C(=O)c2ccc(CCC)c3ccccc23)c2ccccc21,0.6,0.32,1.3,–
CC1(C)C(C(=O)c2cn(CC3CCOCC3)c3ccc(OCc4ccccc4)cc23)C1(C)C,–,2.3,234,–
CC1(C)C(C(=O)c2cn(C[C@@H]3CCCO3)c3ccccc23)C1(C)C,–,1.82,–,–
CCCCCn1cc(C(=O)NC23CC4CC(CC(C4)C2)C3)c(=O)c2cc(Sc3ccccc3)ccc21,–,2.28,–,–
Cc1ccc(NC(=O)C(C)(C(F)(F)F)C(F)(F)F)cc1S(=O)(=O)N1CCOCC1,–,1.31,–,–
Cc1ccc(-c2nc(CC(C)(C)C)cs2)cc1S(=O)(=O)N1CCOCC1,–,1.58,–,–
CC1=CC[C@@H]2[C@@H](C1)c1c(O)cc(C3(C#N)CCCCC3)cc1OC2(C)C,–,0.34,–,–
C#Cc1ccc2c(c1)c(=O)c(C(=O)NC13CC4CC(CC(C4)C1)C3)cn2CCCCC,–,3.05,–,–
Cc1ccc(-c2nc(CC3CCCCC3)cs2)cc1S(=O)(=O)N1CCOCC1,–,1.22,–,–
CCCCCn1cc(C(=O)NC23CC4CC(CC(C4)C2)C3)c(=O)c2cc(-c3ccc(Cl)cc3)ccc21,–,3,–,–
CCCCCn1cc(C(=O)NC23CC4CC(CC(C4)C2)C3)c(=O)c2cc(C3CCCCC3)ccc21,–,3.14,–,–
CC1=CC[C@@H]2[C@@H](C1)c1c(O)cc(-c3cccc4ccccc34)cc1OC2(C)C,–,0.09,–,–
Cc1ccc2c(C(=O)C3C(C)(C)C3(C)C)cn(CC3CCOCC3)c2c1,0.2,–,–,–
CCC(C)(C)C(=O)Nc1cc(CN2CCOCC2)c(C)cn1,–,2.19,–,–
CCCCCn1cc(C(=O)NC23CC4CC(CC(C4)C2)C3)c(=O)c2cc(Br)ccc21,–,1.82,–,–
